How the values were obtained:
[1] = system: early embryos of immunodeficient mouse NOD-scid; experiment: Genome editing efficiency of multiple targets (Treatment Example 19); format: cell-based; settings: Bbox1, IL2RG, 4 target sites
Procedure: Electroporation (genome editing) of high-concentration RNA-protein mixed with CRISPR-Cas9 at multiple sites (4 sites in total) of a plurality of genes in early embryos of immunodeficient mice, which are extremely difficult to manipulate and prepare, was performed, transplanted into the recipient's uterus, and the offspring were obtained.

[2] = system: two-cell frozen embryo of a heterologous inbred SPR2 mouse; experiment: ES cell establishment from SPR2 frozen embryos (Treatment Example 3); format: cell-based, Mus spretus; settings: 5 SPR2 frozen embryos thawed and cultured to blastocyst in Y-27632 medium
Procedure: 5. Then, if necessary, the culture was continued in the Y-27632-free mWM medium to establish ES cells.
After thawing a two-cell frozen embryo of a heterologous inbred SPR2 mouse, it was cultured to a blastocyst in the temporary treatment medium containing Y-27632, and an attempt was made to establish ES cells. As a result, ES cells could be efficiently established (5 frozen embryos, 2 strains established). On the other hand, when Y-27632 was not added, no individual production and ES cells were established.

[3] = system: inbred mouse B6J embryos; experiment: Generation of Flox inbred mice (individuals) by one-step method, high concentration ssODN (Treatment Example 11); format: cell-based; settings: floxed MK2 1STEP (HIGH CONCENTRATION)
Procedure: Furthermore, in the same manner, the individual production is performed in an inbred mouse B6J strain by an electroporation method (1STEP method) by using a high concentration ssODN.

[4] = system: Pronuclear stage embryos of C57BL/6J; experiment: Knockout mouse production by electroporation (TAKE), Mk-3 gene (Treatment Example 1); format: cell-based
Procedure: The TAKE was carried out according to the method described in Patent Document 2.
1. By 3 hours before TAKE, Y-27632-added mWM medium (Y-27632 final concentration 10 μM, an example of the “temporary treatment medium” of this example) and Y-27632-free mWM medium (an example of “normal medium” of this example) were dropped on 35 mm Petri dish in 5 drops, respectively, to prepare the drops covered with paraffin oil.
2. Pronuclear stage embryos were collected from the drops, placed in Y-27632-added mWM medium, and cultured for about 30 minutes to 1 hour (temporary treatment).
3. After that, TAKE was performed. At the time of this TAKE, as described above, the pronuclear stage embryo, after washing, was transferred to a genome editing solution for TAKE or an Opti-MEM solution. The same applied to the following processing.
4. After TAKE, the embryos were placed in Y-27632-added mWM medium (temporary treatment) and cultured under 37° C., 5% CO2, and ([…]) conditions until the next day (1 hour or more and within 12 hours).
5. If necessary, culture was continued or embryo transfer was performed in Y-free mWM medium.
According to a typical method, in the afternoon when female mice and rats were mated with males with vasoligation and confirmed to be plugged, about 10 each were transplanted into the left and right oviducts or uterus of plug-confirmed mature female mice and rats. […]

[5] = system: inbred mouse B6J embryos; experiment: Generation of Flox inbred mice (individuals) by two-step method (Treatment Example 11); format: cell-based
Procedure: 1. Up to 3 hours before TAKE, Y-27632-added mWM medium (Y-27632 final concentration 10 μM, an example of the “temporary treatment medium” of this example), Y-27632-free mWM medium (an example of “normal medium” of this example), 5 drops of each medium were dropped on 35 mm Petri dish, and then covered with paraffin oil. For the drops, twice the number of the drops plates to be performed TAKE were prepared.
2. Pronuclear stage embryos were collected, placed in Y-27632-added mWM medium, and cultured for about 30 minutes to 1 hour (temporary treatment).
3. After that, the first TAKE was performed.
3a. In the case of frozen eggs, after the first TAKE, they were placed in a Y-27632-added mWM medium and cultured for about 30 minutes to 1 hour (temporary treatment).
3b. In the case of unfrozen eggs, after the first TAKE, they were placed in a Y-27632-added mWM medium and cultured under 37° C. and 5% CO2 (5% O2) conditions until the next day (temporary treatment).
4. After the temporary treatment, the embryos were placed in Y-27632-free mWM medium and cultured at 37° C. and 5% CO2 (5% O2) conditions until the next day.
5. Both were confirmed at the next day, and the embryos at the 2-cell stage were subjected to the second TAKE.
6. After the second TAKE, the embryos were placed in Y-27632-added mWM medium and cultured for about 30 minutes to 1 hour (temporary treatment).
7. Then, they were transferred to Y-27632-free mWM medium. If necessary, culture was continued or embryo transfer was performed.
By using an inbred mouse (B6J in B6 strain) different from the inbred mouse of the treatment example 2 according to the first embodiment, knock-in is performed by the same two-step method as the above-mentioned treatment example 2, and further individual preparation is performed.

[6] = floxed Mecp2 2STEP (HIGH CONCENTRATION)

With C[C@@H](N)[C@H]1CC[C@H](C(=O)Nc2ccncc2)CC1 [Y-27632, trans-4-[(1R)-1-Aminoethyl]-N-4-pyrid inylcyclohexanecarboxamide] the KO % ([1]; 47 embryos transferred) was 57%, the Pups ([1]; 47 embryos transferred) was 7 and the “Pups (KO)” value ([1]; 47 embryos transferred) was 4. The KO % ([1]; 49 embryos transferred) was 100%, the Pups ([1]; 49 embryos transferred) was 2 (2) and the “Pups (KO)” value ([1]; 49 embryos transferred) was 2 (2). For the same molecule, the “ES cell strains established” value [2] was 2 strains, the Flox individuals % [3] was 16.7% and the “NUMBER OF FLOX INDIVIDUALS” value [3] was 1/6. For the same molecule, the birth rate increased ([4]; C57BL/6J embryos cultured in Y-27632 medium before and after electroporation, Mk-3 knockout with two gRNAs, versus without Y-27632) was “about 5 times”, the “efficiency of non-homologous end joining (NHEJ)” value ([4]; C57BL/6J, Mk-3 knockout, Y-27632 before and after electroporation) was “did not change” and the Flox individuals % ([5]; floxed Drb1 2STEP) was 2.6%. The “NUMBER OF FLOX INDIVIDUALS” value ([5]; floxed Drb1 2STEP) was 1/39, the Flox individuals % [5, 6] was 3.9% and the “NUMBER OF FLOX INDIVIDUALS” value [5, 6] was 2/51.
